What was measured:
[1] = molecular target: E. coli RNA polymerase σ^70 holoenzyme (Escherichia coli, UniProt P0A8T7+P0A8V2); assay: Fluorescence-detected RNA polymerase assay, E. coli RNA polymerase; assay type: biochemical; conditions: read-out: IC50 E. coli RNAP
[2] = molecular target: M. tuberculosis RNA polymerase core enzyme, M. tuberculosis σ^A (Mycobacterium tuberculosis, UniProt P9WGY7+P9WGY9); assay: Fluorescence-detected RNA polymerase assay, M. tuberculosis RNA polymerase; assay type: biochemical; conditions: read-out: IC50 M. tuberculosis RNAP
[3] = test system: Staphylococcus aureus ATCC 12600; assay: MIC, spiral gradient endpoint assay, S. aureus ATCC 12600; assay type: cell-based; conditions: ATCC12600; Staphylococcus aureus ATCC 12600
[4] = test system: methicillin-resistant Staphylococcus aureus (MRSA) strain BAA-1707 (USA-400; MW2); assay: MIC, spiral gradient endpoint assay, MRSA BAA-1707; assay type: cell-based; conditions: Staphylococcus aureus; read-out: MIC S. aureus MRSA BAA-1707
[5] = test system: methicillin-resistant Staphylococcus aureus (MRSA) strain BAA-1717 (USA-300); assay: MIC, spiral gradient endpoint assay, MRSA BAA-1717; assay type: cell-based; conditions: Staphylococcus aureus; read-out: MIC S. aureus MRSA BAA-1717
[6] = test system: rifampin-resistant Staphylococcus aureus (RRSA) strain ATCC 12600-Rif (H526N); assay: MIC, spiral gradient endpoint assay, RRSA 12600-Rif; assay type: cell-based; conditions: Staphylococcus aureus, ATCC12600; read-out: MIC S. aureus RRSA 12600-Rif
[7] = test system: Acinetobacter baumannii ATCC 19606; assay: MIC, spiral gradient endpoint assay, A. baumannii; assay type: cell-based; conditions: ATCC19606; Acinetobacter baumannii ATCC 19606
[8] = test system: Escherichia coli D21f2tolC; assay: MIC, spiral gradient endpoint assay, E. coli D21f2tolC; assay type: cell-based; conditions: Escherichia coli, D21F2TOLC, read-out: MIC E. coli D21f2toIC
[9] = test system: Mycobacterium tuberculosis H37Rv; assay: MIC, microplate Alamar Blue assay, M. tuberculosis; assay type: cell-based
[10] = test system: Bacillus anthracis Vollum 1b; assay: microbe, parasite or virus in culture; assay type: cell-based; conditions: Bacillus anthracis, VOLLUM1B, read-out: MIC B. anthracis Vollum-1b
[11] = test system: Francisella tularensis SCHU4; assay: microbe, parasite or virus in culture; assay type: cell-based; conditions: Francisella tularensis, SCHU4, read-out: MIC F. tularensis SCHU4
[12] = test system: Yersinia pestis C092; assay: microbe, parasite or virus in culture; assay type: cell-based; conditions: Yersinia pestis, C092, read-out: MIC Y. pestis C092
[13] = test system: Burkholderia mallei CHN7; assay: microbe, parasite or virus in culture; assay type: cell-based; conditions: Burkholderia mallei, CHN7, read-out: MIC B. mallei CHN7
[14] = test system: Burkholderia pseudomallei Human/Blood/OH/US/1994; assay: microbe, parasite or virus in culture; assay type: cell-based; conditions: Burkholderia pseudomallei, read-out: MIC B. pseudomallei Human/Blood/OH
[15] = test system: Brucella melitensis 16M; assay: microbe, parasite or virus in culture; assay type: cell-based; conditions: Brucella melitensis, 16M, read-out: MIC B. melitensis 16M
[16] = molecular target: S. aureus RNA polymerase core enzyme, S. aureus σ^A (Staphylococcus aureus, UniProt P47768+Q2G0N5); assay: Fluorescence-detected RNA polymerase assay, S. aureus RNA polymerase; assay type: biochemical; conditions: read-out: IC50 S. aureus RNAP

Sequence of E. coli RNA polymerase σ^70 holoenzyme (P0A8T7 whole entry): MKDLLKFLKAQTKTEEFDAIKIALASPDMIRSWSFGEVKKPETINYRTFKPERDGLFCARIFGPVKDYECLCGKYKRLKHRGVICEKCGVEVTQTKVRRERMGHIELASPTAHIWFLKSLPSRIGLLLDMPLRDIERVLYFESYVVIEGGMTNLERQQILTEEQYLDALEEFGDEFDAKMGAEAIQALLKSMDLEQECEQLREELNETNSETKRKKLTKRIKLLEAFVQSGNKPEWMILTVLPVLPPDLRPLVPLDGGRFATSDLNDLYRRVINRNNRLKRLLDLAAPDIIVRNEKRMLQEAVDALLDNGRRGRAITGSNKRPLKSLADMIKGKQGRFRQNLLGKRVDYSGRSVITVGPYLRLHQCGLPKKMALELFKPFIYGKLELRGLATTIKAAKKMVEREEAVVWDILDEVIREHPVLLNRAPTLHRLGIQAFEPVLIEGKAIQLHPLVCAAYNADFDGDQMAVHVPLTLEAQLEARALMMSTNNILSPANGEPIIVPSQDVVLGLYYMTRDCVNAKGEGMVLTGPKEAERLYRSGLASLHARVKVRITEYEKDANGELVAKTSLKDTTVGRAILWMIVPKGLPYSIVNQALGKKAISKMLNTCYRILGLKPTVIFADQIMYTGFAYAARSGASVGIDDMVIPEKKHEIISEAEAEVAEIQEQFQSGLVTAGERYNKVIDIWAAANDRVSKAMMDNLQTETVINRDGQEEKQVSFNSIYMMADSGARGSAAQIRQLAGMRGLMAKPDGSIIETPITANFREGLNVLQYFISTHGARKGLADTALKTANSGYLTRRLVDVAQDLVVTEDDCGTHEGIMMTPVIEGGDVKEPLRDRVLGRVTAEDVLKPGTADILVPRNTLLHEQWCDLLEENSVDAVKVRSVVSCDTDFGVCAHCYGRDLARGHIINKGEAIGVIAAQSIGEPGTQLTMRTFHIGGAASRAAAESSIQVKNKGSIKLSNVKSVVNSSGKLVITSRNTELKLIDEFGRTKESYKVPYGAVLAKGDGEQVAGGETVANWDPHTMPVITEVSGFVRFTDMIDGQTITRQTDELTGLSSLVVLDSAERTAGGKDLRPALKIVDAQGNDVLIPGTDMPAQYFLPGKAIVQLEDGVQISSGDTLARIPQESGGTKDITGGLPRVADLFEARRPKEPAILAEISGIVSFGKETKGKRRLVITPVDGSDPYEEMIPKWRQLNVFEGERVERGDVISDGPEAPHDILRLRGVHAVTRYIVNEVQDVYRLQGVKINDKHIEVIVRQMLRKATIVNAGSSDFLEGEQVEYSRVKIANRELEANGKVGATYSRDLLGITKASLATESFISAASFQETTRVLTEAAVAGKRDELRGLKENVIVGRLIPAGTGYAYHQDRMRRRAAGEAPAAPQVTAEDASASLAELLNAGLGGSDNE
Sequence of E. coli RNA polymerase σ^70 holoenzyme (P0A800 whole entry, further chain): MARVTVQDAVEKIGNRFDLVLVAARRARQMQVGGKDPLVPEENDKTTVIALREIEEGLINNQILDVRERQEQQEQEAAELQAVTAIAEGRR
Sequence of E. coli RNA polymerase σ^70 holoenzyme (P0A8V2 whole entry): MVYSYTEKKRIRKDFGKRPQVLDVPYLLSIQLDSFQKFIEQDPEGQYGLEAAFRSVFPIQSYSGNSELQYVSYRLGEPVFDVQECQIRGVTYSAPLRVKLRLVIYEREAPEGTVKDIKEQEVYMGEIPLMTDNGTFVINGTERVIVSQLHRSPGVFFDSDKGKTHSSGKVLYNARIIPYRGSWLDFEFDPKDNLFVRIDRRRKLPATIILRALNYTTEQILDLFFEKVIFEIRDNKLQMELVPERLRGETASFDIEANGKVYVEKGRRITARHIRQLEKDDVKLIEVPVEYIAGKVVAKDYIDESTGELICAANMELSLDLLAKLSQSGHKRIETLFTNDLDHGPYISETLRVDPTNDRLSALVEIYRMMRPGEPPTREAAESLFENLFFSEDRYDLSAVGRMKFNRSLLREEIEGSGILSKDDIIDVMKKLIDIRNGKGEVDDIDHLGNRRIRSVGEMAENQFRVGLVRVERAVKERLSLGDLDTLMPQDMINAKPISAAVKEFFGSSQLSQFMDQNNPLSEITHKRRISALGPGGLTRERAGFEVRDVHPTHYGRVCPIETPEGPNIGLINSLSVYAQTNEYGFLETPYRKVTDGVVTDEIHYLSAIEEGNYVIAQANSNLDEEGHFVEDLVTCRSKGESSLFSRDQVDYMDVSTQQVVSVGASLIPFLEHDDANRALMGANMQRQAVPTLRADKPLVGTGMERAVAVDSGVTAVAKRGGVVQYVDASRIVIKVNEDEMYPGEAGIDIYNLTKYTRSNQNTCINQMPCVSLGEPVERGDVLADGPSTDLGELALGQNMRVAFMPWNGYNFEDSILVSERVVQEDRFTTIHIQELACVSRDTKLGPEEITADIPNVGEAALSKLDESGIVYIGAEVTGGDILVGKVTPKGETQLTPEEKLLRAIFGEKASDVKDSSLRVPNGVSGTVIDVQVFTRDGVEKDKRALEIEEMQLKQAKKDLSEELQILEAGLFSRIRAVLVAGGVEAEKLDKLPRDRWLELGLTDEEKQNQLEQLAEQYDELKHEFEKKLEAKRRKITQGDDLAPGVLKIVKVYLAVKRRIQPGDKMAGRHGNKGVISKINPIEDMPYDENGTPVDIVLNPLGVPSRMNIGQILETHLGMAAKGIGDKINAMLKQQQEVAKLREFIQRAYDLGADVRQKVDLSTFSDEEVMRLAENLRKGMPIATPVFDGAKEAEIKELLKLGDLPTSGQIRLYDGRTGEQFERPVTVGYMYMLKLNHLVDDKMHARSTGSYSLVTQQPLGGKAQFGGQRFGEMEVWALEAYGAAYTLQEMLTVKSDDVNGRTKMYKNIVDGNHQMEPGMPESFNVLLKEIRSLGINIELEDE
Sequence of E. coli RNA polymerase σ^70 holoenzyme (P00579 whole entry, further chain): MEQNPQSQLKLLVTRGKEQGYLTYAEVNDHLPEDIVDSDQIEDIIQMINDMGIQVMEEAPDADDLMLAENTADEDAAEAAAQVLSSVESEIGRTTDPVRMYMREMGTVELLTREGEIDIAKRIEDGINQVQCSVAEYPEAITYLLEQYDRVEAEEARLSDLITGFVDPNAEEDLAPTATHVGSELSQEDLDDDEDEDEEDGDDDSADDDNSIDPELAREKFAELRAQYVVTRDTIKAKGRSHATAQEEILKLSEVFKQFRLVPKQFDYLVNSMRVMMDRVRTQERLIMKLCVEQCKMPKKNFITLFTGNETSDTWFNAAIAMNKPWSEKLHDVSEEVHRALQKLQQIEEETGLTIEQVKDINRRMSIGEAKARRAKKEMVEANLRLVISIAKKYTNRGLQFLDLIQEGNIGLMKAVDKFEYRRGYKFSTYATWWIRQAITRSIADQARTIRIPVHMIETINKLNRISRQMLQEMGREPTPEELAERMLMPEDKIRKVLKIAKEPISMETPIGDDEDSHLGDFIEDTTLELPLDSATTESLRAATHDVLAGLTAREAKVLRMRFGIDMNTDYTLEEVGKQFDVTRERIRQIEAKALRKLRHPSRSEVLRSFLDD
Sequence of E. coli RNA polymerase σ^70 holoenzyme (P0A7Z4 whole entry, further chain): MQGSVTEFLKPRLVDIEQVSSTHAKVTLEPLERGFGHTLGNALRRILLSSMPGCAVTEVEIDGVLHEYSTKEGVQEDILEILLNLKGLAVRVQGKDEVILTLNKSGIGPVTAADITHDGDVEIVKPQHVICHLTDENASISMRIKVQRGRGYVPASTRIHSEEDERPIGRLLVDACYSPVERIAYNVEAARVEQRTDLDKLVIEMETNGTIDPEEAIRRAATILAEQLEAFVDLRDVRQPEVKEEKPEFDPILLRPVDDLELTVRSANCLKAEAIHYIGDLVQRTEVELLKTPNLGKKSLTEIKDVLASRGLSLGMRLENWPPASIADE

Compound	IC50 [1]	IC50 [2]	MIC [3]	MIC [4]	MIC [5]	MIC [6]	MIC [7]	MIC [8]	MIC [9]	MIC [10]	MIC [11]	MIC [12]	MIC [13]	MIC [14]	MIC [15]	IC50 [16]
CCOCc1ccc(C=C(C)C(=O)c2c(O)cc(C(C)CC/C=C/NC(=O)OC)oc2=O)s1 (mixture of isomers) [APY108, methyl ((1E)-5-(3-(3-(5-(ethoxymethyl)thiophen-2-yl)-2-methylacryloyl)-4-hydroxy-2-oxo-2H-pyran-6-yl)hex-1-en-1-yl)carbamate]	300 nM	700 nM	10 µg/mL	20 µg/mL	20 µg/mL	20 µg/mL	> 40 µg/mL	0.4 µg/mL	30 µg/mL							
COC(=O)N/C=C/CCC(C)c1cc(O)c(C(=O)C(C)=Cc2ccc(OC(C)C)s2)c(=O)o1 (mixture of isomers) [APY107, methyl ((1E)-5-(4-hydroxy-3-(3-(5-isopropoxythiophen-2-yl)-2-methylacryloyl)-2-oxo-2H-pyran-6-yl)hex-1-en-1-yl)carbamate]	20 nM	400 nM	2 µg/mL	2 µg/mL	2 µg/mL	2 µg/mL	> 40 µg/mL	0.1 µg/mL	10 µg/mL							
CCCCc1ccc(C=C(C)C(=O)c2c(O)cc(C(C)CC/C=C/NC(=O)OC)oc2=O)cc1 (mixture of isomers) [APY41, methyl (E)-5-(3-((E/Z)-3-(4-butylphenyl)-2-methylacryloyl)-4-hydroxy-2-oxo-2H-pyran-6-yl)hex-1-enylcarbamate]	8 nM		0.8 µg/mL	0.6 µg/mL	0.6 µg/mL	0.9 µg/mL	> 40 µg/mL	< 0.2 µg/mL	3 µg/mL	2 µg/mL	6 µg/mL	30 µg/mL	6 µg/mL	10 µg/mL	0.8 µg/mL	
COC(=O)N/C=C/CCC(C)c1cc(O)c(C(=O)C(C)=Cc2ccc(CCCC(F)(F)F)s2)c(=O)o1 (mixture of isomers) [APY81, methyl ((1E)-5-(4-hydroxy-3-(2-methyl-3-(5-(4,4,4-trifluorobutyl)thiophen-2-yl)acryloyl)-2-oxo-2H-pyran-6-yl)hex-1-en-1-yl)carbamate]	10 nM	50 nM	0.4 µg/mL	0.5 µg/mL	0.9 µg/mL	0.8 µg/mL	20 µg/mL	0.08 µg/mL	10 µg/mL	2 µg/mL	30 µg/mL		10 µg/mL	10 µg/mL	2 µg/mL	30 nM
COC(=O)N/C=C/CCCc1cc(O)c(C(=O)C(C)=Cc2ccc(CCCC(F)(F)F)s2)c(=O)o1 (mixture of isomers) [APY90, methyl ((1E)-5-(4-hydroxy-3-(2-methyl-3-(5-(4,4,4-trifluorobutyl)thiophen-2-yl)acryloyl)-2-oxo-2H-pyran-6-yl)pent-1-en-1-yl)carbamate]	30 nM	300 nM	0.9 µg/mL	2 µg/mL	2 µg/mL	2 µg/mL	10 µg/mL	0.07 µg/mL	10 µg/mL							800 nM
COC(=O)N/C=C/CCCc1cc(O)c(C(=O)C(C)=Cc2ccc(CCC(C)C)s2)c(=O)o1 (mixture of isomers) [APY91, methyl ((1E)-5-(4-hydroxy-3-(3-(5-isopentylthiophen-2-yl)-2-methylacryloyl)-2-oxo-2H-pyran-6-yl)pent-1-en-1-yl)carbamate]	20 nM	400 nM	0.7 µg/mL	2 µg/mL	2 µg/mL	2 µg/mL	9 µg/mL	0.08 µg/mL	50 µg/mL							600 nM
CCCOCc1ccc(C=C(C)C(=O)c2c(O)cc(C(C)CC/C=C/NC(=O)OC)oc2=O)s1 (mixture of isomers) [APY109, methyl ((1E)-5-(4-hydroxy-3-(2-methyl-3-(5-(propoxymethyl)thiophen-2-yl)acryloyl)-2-oxo-2H-pyran-6-yl)hex-1-en-1-yl)carbamate]	80 nM	800 nM	3 µg/mL	7 µg/mL	7 µg/mL	7 µg/mL	> 40 µg/mL	0.2 µg/mL	30 µg/mL							
COC(=O)N/C=C/CCC(C)c1cc(O)c(C(=O)C(C)=Cc2ccc(CCC3CC3)s2)c(=O)o1 (mixture of isomers) [APY95, methyl ((1E)-5-(3-(3-(5-(2-cyclopropylethyl)thiophen-2-yl)-2-methylacryloyl)-4-hydroxy-2-oxo-2H-pyran-6-yl)hex-1-en-1-yl)carbamate]	5 nM	50 nM	0.8 µg/mL	0.3 µg/mL	0.4 µg/mL	0.5 µg/mL	10 µg/mL	0.1 µg/mL	10 µg/mL							
CCCCCCc1cccc(C=C(C)C(=O)c2c(O)cc(C(C)CC/C=C/NC(=O)OC)oc2=O)c1 (mixture of isomers) [APY34, methyl (E)-5-(3-((E/Z)-3-(3-hexylphenyl)-2-methylacryloyl)-4-hydroxy-2-oxo-2H-pyran-6-yl)hex-1-enylcarbamate]	10 nM	3000 nM	> 40 µg/mL				10 µg/mL	0.3 µg/mL	30 µg/mL	3 µg/mL	6 µg/mL	> 50 µg/mL	3 µg/mL	30 µg/mL	3 µg/mL	50 nM
COC(=O)N/C=C/CCC(C)c1cc(O)c(C(=O)C(C)=Cc2ccc(CCC(C)C)cc2)c(=O)o1 (mixture of isomers) [APY73, methyl (E)-5-(4-hydroxy-5-((E/Z)-3-(4-isopentylphenyl)-2-methylacryloyl)-6-oxo-6H-pyran-2-yl)hex-1-enylcarbamate]	40 nM		0.6 µg/mL	1 µg/mL	1 µg/mL	2 µg/mL	> 40 µg/mL	0.3 µg/mL		2 µg/mL	10 µg/mL		50 µg/mL	50 µg/mL	3 µg/mL	
COC(=O)N/C=C/CCC(C)c1cc(O)c(C(=O)C(C)=Cc2ccc(OC(C)C)cc2)c(=O)o1 (mixture of isomers) [APY66, methyl (E)-5-(4-hydroxy-5-((E/Z)-3-(4-isopropoxyphenyl)-2-methylacryloyl)-6-oxo-6H-pyran-2-yl)hex-1-enylcarbamate]	1000 nM		2 µg/mL	2 µg/mL	2 µg/mL	3 µg/mL	> 40 µg/mL	0.8 µg/mL	6 µg/mL	10 µg/mL	> 50 µg/mL		> 50 µg/mL	> 50 µg/mL	10 µg/mL	
CCCCCCc1coc(C=C(C)C(=O)c2c(O)cc(C(C)CC/C=C/NC(=O)OC)oc2=O)c1 (mixture of isomers) [APY19, methyl (E)-5-(3-((E/Z)-3-(4-hexylfuran-2-yl)-2-methylacryloyl)-4-hydroxy-2-oxo-2H-pyran-6-yl)hex-1-enylcarbamate]	7 nM	400 nM	2 µg/mL				10 µg/mL	0.1 µg/mL	6 µg/mL	2 µg/mL	6 µg/mL	6 µg/mL	0.8 µg/mL	3 µg/mL	0.4 µg/mL	30 nM
C=CCCCCc1ccc(C=C(C)C(=O)c2c(O)cc(C(C)CC/C=C/NC(=O)OC)oc2=O)s1 (mixture of isomers) [APY29, methyl (E)-5-(3-((E/Z)-3-(5-(hex-5-enyl)thiophen-2-yl)-2-methylacryloyl)-4-hydroxy-2-oxo-2H-pyran-6-yl)hex-1-enylcarbamate]	40 nM	500 nM	4 µg/mL				30 µg/mL	0.3 µg/mL	30 µg/mL	3 µg/mL	10 µg/mL	10 µg/mL	3 µg/mL	10 µg/mL	0.8 µg/mL	90 nM
